# Source: paper PMC12064818, “A general assay platform to study protein pharmacology using ligand-dependent structural dynamics” (Nature Communications, 2025)
# Target: T1, FLuc-C-HiBiT (Photinus pyralis, UniProt P08659)
# T1 construct: firefly luciferase with C-terminal HiBiT tag, E. coli expressed
# Assay: biochemical
# Details: enzyme activity, 10 uM ATP; read-out: IC50 or SDR50 (mM) / FLuc E
# T1 sequence (P08659 whole entry, looked up): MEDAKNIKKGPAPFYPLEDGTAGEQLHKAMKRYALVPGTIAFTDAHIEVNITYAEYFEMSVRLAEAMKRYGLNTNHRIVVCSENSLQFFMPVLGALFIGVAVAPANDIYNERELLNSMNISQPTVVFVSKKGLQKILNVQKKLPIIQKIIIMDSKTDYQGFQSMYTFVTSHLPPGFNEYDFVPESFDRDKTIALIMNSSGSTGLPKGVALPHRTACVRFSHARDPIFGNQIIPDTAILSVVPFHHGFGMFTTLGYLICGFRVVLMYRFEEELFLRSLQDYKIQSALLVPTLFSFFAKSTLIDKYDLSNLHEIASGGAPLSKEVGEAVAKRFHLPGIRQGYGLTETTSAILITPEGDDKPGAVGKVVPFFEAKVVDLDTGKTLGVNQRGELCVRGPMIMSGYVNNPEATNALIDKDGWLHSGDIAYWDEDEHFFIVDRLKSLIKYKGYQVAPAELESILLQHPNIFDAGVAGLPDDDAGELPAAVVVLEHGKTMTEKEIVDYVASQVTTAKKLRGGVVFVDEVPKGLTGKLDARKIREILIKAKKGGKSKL
row,IC50,Structure (SMILES)
1,17.6 µM,COCC1CCN(c2ccc(-c3nc(-c4ccccc4C)no3)cn2)C1 (stereo not shown) [NCGC00427117-01]
2,> 30 µM,CC(C)C(=O)NC1CCN(Cc2ccc(-c3nc4cccc(Cl)c4s3)cc2)CC1 [NCGC00632240-01]
3,7 µM,Cc1cn2c(=O)cc(COC(=O)c3cccc(NC(=O)COc4ccccc4Cl)c3)nc2s1 [NCGC00130619-01]
4,> 30 µM,COc1ccc(CN2CC(COc3ccccc3)C3(C2)CN(c2ccccc2)C3)cc1O (stereo not shown) [NCGC00415956-01]
5,2.79 µM,CN1CCN(c2ccc(-c3cc4c(ccn4C)c(C(=O)NCCc4ccccn4)n3)cc2)CC1 [NCGC00411712-01]
6,0.989 µM,Clc1cccc(-c2nc(-c3ccccn3)no2)c1 [NCGC00035901-01]
7,9.89 µM,Cn1nc(-c2ccc3c(c2)OCCO3)nc1N1CCCCC1 [NCGC00447616-01]
8,4.95 µM,CC(=O)Nc1ccc(NC(=O)CCCc2nc(-c3ccc(C(C)(C)C)cc3)no2)cc1 [NCGC00116112-01]
9,11.1 µM,COc1cccc(-c2noc(COc3ccccc3Cl)n2)c1 [NCGC00115123-01]
10,9.89 µM,Cc1ccc(C2Cn3nnc(C(=O)N4CCC(C(=O)NCCc5cccs5)CC4)c3CO2)cc1 (stereo not shown) [NCGC00449541-01]
11,8.81 µM,Cc1ccc(-c2cc(N3CCC(CNC(=O)c4ccc5[nH]cnc5c4)CC3)[nH]n2)cc1 [NCGC00437766-01]
12,> 30 µM,COc1ccc(C(=O)Nc2ccc(-c3nc4ccccc4s3)c(Cl)c2)cc1Cl [NCGC00102002-01]
13,11.1 µM,Cc1ccc(-c2nnc(SCc3ccccc3)o2)cc1 [NCGC00141131-01]
14,0.0442 µM,Cc1ccc(/C=C/c2nc3ccccc3[nH]2)cc1 [NCGC00139422-01]
15,> 30 µM,CC[S+](=O)([O-])c1ccccc1C(=O)Nc1ccc(-c2nc3ccccc3s2)cc1 [NCGC00134164-01]
16,9.89 µM,Cc1ccc(-c2cc3c(=O)n(CCNC(=O)c4ccoc4)ccn3n2)cc1C [NCGC00457019-01]
17,2.79 µM,Cc1ccc(C(=O)Nc2ccccc2C(=O)O)cc1[S+](=O)([O-])N1CCCCCC1 [NCGC00098472-01]
18,0.989 µM,C[C@H](C(=O)NCCN1CCOCC1)C1CC[C@@]2(C)Cc3sc(-c4ccccc4)nc3[C@@H](C)[C@@H]2[C@H]1O (stereo partly shown) [NCGC00421022-01]
19,> 30 µM,COc1cc(OC)cc(C(=O)Nc2ccc(-c3nc4ccccc4s3)c(C)c2)c1 [NCGC00137814-01]
20,0.197 µM,Cc1ccc(-n2ncc3c(N4CCCCCC4)ncnc32)cc1 [NCGC00139018-01]
21,3.94 µM,COc1cccc(-c2noc(Nc3ccc(OC)c(OC)c3)n2)c1 [NCGC00422366-01]

row,IC50,Structure (SMILES)
1,> 30 µM,COCCOc1nc(N)c2[nH]c(=O)n(Cc3ccc(C(=O)O)cc3)c2n1 [NCGC00480851-01]
2,> 30 µM,O=C(COc1ccccc1[N+](=O)[O-])Nc1ccc(-c2nc3ccccc3s2)cc1 [NCGC00119127-01]
3,7.85 µM,COc1ccc(OCC(=O)Nc2cccc(-c3nc4ccccc4s3)c2C)cc1 [NCGC00118972-01]
4,0.624 µM,Cc1ccc(/C=C/c2nc3ccccc3n2S(=O)(=O)c2ccc(Br)cc2)cc1 [NCGC00140607-01]
5,8.81 µM,O=C1NCCCCCCN(C(=O)Nc2ccc3c(c2)OCCO3)[C@H]2CCCC[C@@H]12 [NCGC00466580-01]
6,11.1 µM,O=C(O)c1ccnc(-c2ccnc(NCCN3CCCCC3=O)n2)c1 [NCGC00438481-01]
7,18 µM,O=C(Nc1ccccc1)c1nc2c(o1)CCN(Cc1ccccn1)CC2 [NCGC00413398-01]
8,15.7 µM,O=C(Cc1cccc(Cl)c1)N1CCn2c(nnc2-c2ccccc2)C1 [NCGC00479548-01]
9,14.3 µM,COc1ccc(CN2C[C@H](O)C[C@H]2c2nc(-c3ccc(OC)cc3)no2)cc1 [NCGC00400669-01]
10,0.7 µM,Cc1cc2nn(-c3ccc(Cl)cc3)nc2cc1NC(=O)C(C)C [NCGC00099081-01]
11,9.04 µM,O=C1c2cnc(-c3cccc(C(F)(F)F)c3)nc2OCCN1CC1CC1 [NCGC00413514-01]
12,1.97 µM,CCOc1ccc(C(=O)Nc2onc3c2CCCC3)cc1 [NCGC00115912-01]
13,0.556 µM,CC1CCCN(C(=O)c2cc3ccc4cccnc4c3[nH]2)C1 (stereo not shown) [NCGC00126906-01]
14,3.94 µM,Cc1ccc(C(=O)Nc2cccc(-c3ccc(N4CCN(C)CC4)nn3)c2)cc1C [NCGC00427552-01]
15,3.51 µM,COc1ccc(C(=O)NCCn2ccn3nc(-c4ccc(C)cc4C)cc3c2=O)cc1F [NCGC00456968-01]
16,3.51 µM,Cc1ccc(NC(=O)/C=C/c2ccccc2Cl)cc1Cl [NCGC00098283-01]
17,> 30 µM,CCn1cc(-c2ccc(C)cc2)cc1C(=O)O [NCGC00432661-01]
18,7.85 µM,CCc1nn2c(-c3ccco3)ccnc2c1-c1ccc(F)cc1 [NCGC00164922-01]
19,3.13 µM,O=C(Nc1cc(F)cc(F)c1)Nc1cccc(-c2ccc(N3CCOCC3)nn2)c1 [NCGC00427624-01]
20,3.94 µM,COc1ccc(-c2cc(N3CCCC(NC(=O)c4ccc5ncccc5c4)C3)[nH]n2)cc1 (stereo not shown) [NCGC00437712-01]
21,> 30 µM,CN1CCc2nc3sc(C(=O)Nc4cccc(C#N)c4)c(N)c3cc2C1 [NCGC00103003-01]

row,IC50,Structure (SMILES)
1,16.1 µM,Fc1cccc(-c2cnc(Nc3ccc(N4CCOCC4)cc3)c3c2CCO3)c1 [NCGC00412721-01]
2,9.89 µM,Cc1ccc(C)c(N2CCN(C(=O)c3ccc(NC(=O)c4nsc5ccccc45)cc3)CC2)c1 [NCGC00134456-01]
3,11.1 µM,CCc1ccccc1NC(=O)c1nnn(-c2ccc(F)cc2)c1C [NCGC00104938-01]
4,9.89 µM,CC(CCn1cccn1)NC(=O)c1csc2nc(-c3ccc(C(F)(F)F)cc3)cn12 (stereo not shown) [NCGC00427469-01]
5,12.4 µM,Oc1ccccc1CN1CCNc2cc(Nc3ccccc3)ncc2C1 [NCGC00411199-02]
6,12.8 µM,COc1cccc(-c2ncc3c(n2)OCCN(Cc2ccccc2)C3=O)c1 [NCGC00413619-01]
7,7 µM,Cc1ccc(-c2cc3c(=O)n(CCNC(=O)c4ccc(C)s4)ccn3n2)c(C)c1 [NCGC00456966-01]
8,> 30 µM,NC(=O)CC1CCN(c2ncnc3c2cnn3-c2ccccc2)CC1 [NCGC00610672-01]
9,> 30 µM,COc1cccc(-c2nc3cc(NC(=O)c4ccc(C)c([N+](=O)[O-])c4)ccc3s2)c1 [NCGC00348177-01]
10,14.3 µM,Cn1cc(-c2cnc(Nc3ccc(N4CCOCC4)cc3)c3c2CCO3)cn1 [NCGC00412818-01]
11,> 30 µM,CC(CCc1ccc(O)cc1)N1CCOc2c(O)cc(-c3nc4ccccc4s3)cc2C1 (stereo not shown) [NCGC00240078-01]
12,12.4 µM,CCCc1ccc2oc(C(=O)NCCc3nncn3CC)c(C)c2c1 [NCGC00436423-01]
13,25.5 µM,Cc1ccccc1CN1CC[C@H](c2nc3cc(F)ccc3[nH]2)C1 [NCGC00396601-01]
14,> 30 µM,Cc1n[nH]c2c1C(c1ccc(Cl)cc1)C(C#N)=C(N)O2 (stereo not shown) [NCGC00027933-02]
15,7.85 µM,COc1cccc(C(=O)NCCn2ccn3nc(-c4ccc(C)c(C)c4)cc3c2=O)c1OC [NCGC00457018-01]
16,18 µM,Cn1cc(-c2cccc(COc3ccc4c(cnn4CC[S+](C)(=O)[O-])c3)c2)cn1 [NCGC00418049-01]
17,6.24 µM,Cc1cn2c(=O)cc(COC(=O)c3ccccc3F)nc2s1 [NCGC00129878-01]
18,1.97 µM,O=C(Nc1ccc(F)cc1)Nc1cccc(-c2ccc(N3CCOCC3)nn2)c1 [NCGC00427578-01]
19,11.1 µM,Cc1ccc(NC(=O)N2CCC(CCNC(=O)C3CC3)CC2)cc1 [NCGC00424850-01]
